The values below come from the kinase profiling compilation of Christmann-Franck et al. (2016).

Some targets named below: CSNK1G2 (human) (UniProt P78368); DDR1 (human) (UniProt Q08345); PDGFRB (human) (UniProt P09619); CSNK1E (human) (UniProt P49674); PRKX (human) (UniProt P51817); HIPK4 (human) (UniProt Q8NE63); CSF1R (human) (UniProt P07333); MKNK2 (human) (UniProt Q9HBH9); AKT3 (human) (UniProt Q9Y243); AKT1 (human) (UniProt P31749); SLK (human) (UniProt Q9H2G2).
Assay [1] has as its system FLT3 (human), P36888 [N841I]. Briefly: KINOMEscan competition binding.
A further assay deals with PRKCD (human) (UniProt Q05655). Nature of the assay: KINOMEscan competition binding.
PRKCD (human), sequence (Q05655 whole entry, looked up): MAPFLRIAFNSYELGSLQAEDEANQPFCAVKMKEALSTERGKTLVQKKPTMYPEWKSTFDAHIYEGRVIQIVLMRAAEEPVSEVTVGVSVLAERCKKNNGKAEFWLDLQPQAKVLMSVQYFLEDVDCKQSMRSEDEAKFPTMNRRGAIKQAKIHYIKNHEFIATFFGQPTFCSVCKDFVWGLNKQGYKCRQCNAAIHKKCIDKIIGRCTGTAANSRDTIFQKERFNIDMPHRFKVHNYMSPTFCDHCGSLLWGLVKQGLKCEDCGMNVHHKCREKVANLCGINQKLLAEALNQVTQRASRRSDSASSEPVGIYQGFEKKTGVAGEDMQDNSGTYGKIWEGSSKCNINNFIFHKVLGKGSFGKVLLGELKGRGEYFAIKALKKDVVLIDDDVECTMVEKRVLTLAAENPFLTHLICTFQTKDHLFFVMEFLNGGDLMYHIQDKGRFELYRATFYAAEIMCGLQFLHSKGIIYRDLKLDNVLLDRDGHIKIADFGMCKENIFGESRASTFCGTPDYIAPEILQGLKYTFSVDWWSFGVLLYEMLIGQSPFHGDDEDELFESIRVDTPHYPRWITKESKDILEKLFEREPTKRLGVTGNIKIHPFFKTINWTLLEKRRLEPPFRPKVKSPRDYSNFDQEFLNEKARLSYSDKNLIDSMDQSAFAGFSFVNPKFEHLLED
For a further assay, the target named is GRK7 (human) (UniProt Q8WTQ7). Briefly: KINOMEscan competition binding.
GRK7 (human), sequence (Q8WTQ7 whole entry, looked up): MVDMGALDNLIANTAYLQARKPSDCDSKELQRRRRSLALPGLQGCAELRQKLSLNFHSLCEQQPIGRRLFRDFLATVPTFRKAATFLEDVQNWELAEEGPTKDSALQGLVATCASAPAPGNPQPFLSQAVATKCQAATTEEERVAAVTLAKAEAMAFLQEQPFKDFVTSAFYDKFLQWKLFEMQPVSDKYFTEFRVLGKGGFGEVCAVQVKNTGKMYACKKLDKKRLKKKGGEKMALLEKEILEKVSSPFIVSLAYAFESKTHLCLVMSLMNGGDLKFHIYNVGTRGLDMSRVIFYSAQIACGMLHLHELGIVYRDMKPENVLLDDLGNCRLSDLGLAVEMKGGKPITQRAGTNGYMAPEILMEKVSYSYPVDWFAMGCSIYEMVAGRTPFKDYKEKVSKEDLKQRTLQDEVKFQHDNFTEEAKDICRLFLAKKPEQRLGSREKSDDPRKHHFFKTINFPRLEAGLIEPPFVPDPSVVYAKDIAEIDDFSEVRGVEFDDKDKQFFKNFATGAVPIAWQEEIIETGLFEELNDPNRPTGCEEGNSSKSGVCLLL
The target in a further assay is STK4 (human) (UniProt Q13043). Nature of the assay: KINOMEscan competition binding.
STK4 (human), sequence (Q13043 whole entry, looked up): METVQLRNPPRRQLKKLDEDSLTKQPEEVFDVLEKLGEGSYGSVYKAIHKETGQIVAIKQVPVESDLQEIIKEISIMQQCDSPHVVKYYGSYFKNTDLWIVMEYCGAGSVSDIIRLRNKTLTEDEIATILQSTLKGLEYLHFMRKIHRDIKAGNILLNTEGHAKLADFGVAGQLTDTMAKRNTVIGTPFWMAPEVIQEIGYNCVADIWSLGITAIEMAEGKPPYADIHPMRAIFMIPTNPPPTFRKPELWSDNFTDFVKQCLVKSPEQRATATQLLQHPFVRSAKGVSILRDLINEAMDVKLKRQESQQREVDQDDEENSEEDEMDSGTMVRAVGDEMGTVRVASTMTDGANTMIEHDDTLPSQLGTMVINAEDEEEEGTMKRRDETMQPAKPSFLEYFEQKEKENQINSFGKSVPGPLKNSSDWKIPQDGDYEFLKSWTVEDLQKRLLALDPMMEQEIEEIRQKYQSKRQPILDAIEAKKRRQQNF
For the next assay, the target named is ROCK2 (human) (UniProt O75116). Briefly: KINOMEscan competition binding.
Another assay addresses MYLK (human) (UniProt Q15746). Briefly: KINOMEscan competition binding.
For the next assay, the target named is RIPK2 (human) (UniProt O43353). Briefly: radiometric filter-binding kinase assay.
Another assay concerns the target EPHB2 (human) (UniProt P29323). Nature of the assay: radiometric filter-binding kinase assay.
A further assay has as its target MAPK10 (human) (UniProt P53779). Briefly: radiometric filter-binding kinase assay.
The target of a further assay is MAP3K9 (human) (UniProt P80192). Briefly: radiometric filter-binding kinase assay.
The target of the next assay is EPHB4 (human) (UniProt P54760). Briefly: radiometric filter-binding kinase assay.
A further assay deals with MAPK9 (human) (UniProt P45984). Briefly: radiometric filter-binding kinase assay.
The target of another assay is ERBB4 (human) (UniProt Q15303). Nature of the assay: radiometric filter-binding kinase assay.
For another assay, the target named is MAP3K7 (human) (UniProt O43318). Nature of the assay: radiometric filter-binding kinase assay.
MAP3K7 (human), sequence (O43318 whole entry, looked up): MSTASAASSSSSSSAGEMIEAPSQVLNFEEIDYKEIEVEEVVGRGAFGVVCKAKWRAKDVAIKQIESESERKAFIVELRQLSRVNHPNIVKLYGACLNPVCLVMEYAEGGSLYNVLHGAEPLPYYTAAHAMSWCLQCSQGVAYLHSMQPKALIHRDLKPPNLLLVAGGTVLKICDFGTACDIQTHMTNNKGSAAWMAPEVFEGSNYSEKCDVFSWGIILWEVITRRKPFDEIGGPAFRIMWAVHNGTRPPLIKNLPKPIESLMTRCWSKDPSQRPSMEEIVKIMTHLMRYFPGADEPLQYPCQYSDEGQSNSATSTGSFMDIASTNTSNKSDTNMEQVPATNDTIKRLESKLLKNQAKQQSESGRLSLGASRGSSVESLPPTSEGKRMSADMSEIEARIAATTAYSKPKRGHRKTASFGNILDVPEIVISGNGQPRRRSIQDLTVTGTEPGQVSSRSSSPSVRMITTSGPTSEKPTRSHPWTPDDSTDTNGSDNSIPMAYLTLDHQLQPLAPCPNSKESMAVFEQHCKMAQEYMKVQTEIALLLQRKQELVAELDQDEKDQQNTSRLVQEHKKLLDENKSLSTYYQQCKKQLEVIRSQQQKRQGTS
Another assay deals with FLT1 (human) (UniProt P17948). Briefly: radiometric filter-binding kinase assay.
The target in the next assay is MAPK8 (human) (UniProt P45983). Nature of the assay: radiometric filter-binding kinase assay.
For another assay, the target named is GSK3B (human) (UniProt P49841). Briefly: radiometric filter-binding kinase assay.
GSK3B (human), sequence (P49841 whole entry, looked up): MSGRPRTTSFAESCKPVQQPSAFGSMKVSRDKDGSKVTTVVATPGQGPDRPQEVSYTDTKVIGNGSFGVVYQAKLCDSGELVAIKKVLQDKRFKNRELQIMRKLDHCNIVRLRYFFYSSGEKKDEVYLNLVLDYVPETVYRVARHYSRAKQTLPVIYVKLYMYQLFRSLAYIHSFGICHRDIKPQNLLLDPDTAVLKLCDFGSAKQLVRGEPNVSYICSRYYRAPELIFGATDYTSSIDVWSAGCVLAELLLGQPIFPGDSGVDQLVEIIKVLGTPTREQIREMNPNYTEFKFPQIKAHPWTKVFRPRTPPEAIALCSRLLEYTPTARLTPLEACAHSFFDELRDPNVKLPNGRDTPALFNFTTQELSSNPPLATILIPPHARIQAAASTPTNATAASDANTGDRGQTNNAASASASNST
A further assay deals with YES1 (human) (UniProt P07947). Nature of the assay: radiometric filter-binding kinase assay.
The next assay deals with CaMK1 (human) (UniProt Q14012). Nature of the assay: radiometric filter-binding kinase assay.
For assay [2], the target named is AKT2 (human), P31751 [S474D]. Nature of the assay: radiometric filter-binding kinase assay.
Assay [3] has as its target HIPK1 (human) (UniProt Q86Z02).
The target in assay [4] is IRAK1 (human) (UniProt P51617).
For another assay, the target named is MAPK15 (human) (UniProt Q8TD08). Briefly: radiometric filter-binding kinase assay.
Another assay addresses GCK (human) (UniProt Q12851). Briefly: radiometric filter-binding kinase assay.
In assay [5] the target is HIPK1 (human) (UniProt Q86Z02). Nature of the assay: radiometric filter-binding kinase assay.
Assay [6] concerns the target IRAK1 (human) (UniProt P51617). Nature of the assay: radiometric filter-binding kinase assay.
Another assay has as its target NUAK1 (human) (UniProt O60285). Briefly: radiometric filter-binding kinase assay.
In a further assay the target is CSNK2A1 (human) (UniProt P68400). Nature of the assay: radiometric filter-binding kinase assay.
In the next assay the target is JAK2 JH1 JH2 (human) (UniProt O60674). Briefly: radiometric filter-binding kinase assay.
A further assay addresses CLK2 (human) (UniProt P49760). Nature of the assay: radiometric filter-binding kinase assay.

MYLK (human), sequence (Q15746 whole entry, looked up): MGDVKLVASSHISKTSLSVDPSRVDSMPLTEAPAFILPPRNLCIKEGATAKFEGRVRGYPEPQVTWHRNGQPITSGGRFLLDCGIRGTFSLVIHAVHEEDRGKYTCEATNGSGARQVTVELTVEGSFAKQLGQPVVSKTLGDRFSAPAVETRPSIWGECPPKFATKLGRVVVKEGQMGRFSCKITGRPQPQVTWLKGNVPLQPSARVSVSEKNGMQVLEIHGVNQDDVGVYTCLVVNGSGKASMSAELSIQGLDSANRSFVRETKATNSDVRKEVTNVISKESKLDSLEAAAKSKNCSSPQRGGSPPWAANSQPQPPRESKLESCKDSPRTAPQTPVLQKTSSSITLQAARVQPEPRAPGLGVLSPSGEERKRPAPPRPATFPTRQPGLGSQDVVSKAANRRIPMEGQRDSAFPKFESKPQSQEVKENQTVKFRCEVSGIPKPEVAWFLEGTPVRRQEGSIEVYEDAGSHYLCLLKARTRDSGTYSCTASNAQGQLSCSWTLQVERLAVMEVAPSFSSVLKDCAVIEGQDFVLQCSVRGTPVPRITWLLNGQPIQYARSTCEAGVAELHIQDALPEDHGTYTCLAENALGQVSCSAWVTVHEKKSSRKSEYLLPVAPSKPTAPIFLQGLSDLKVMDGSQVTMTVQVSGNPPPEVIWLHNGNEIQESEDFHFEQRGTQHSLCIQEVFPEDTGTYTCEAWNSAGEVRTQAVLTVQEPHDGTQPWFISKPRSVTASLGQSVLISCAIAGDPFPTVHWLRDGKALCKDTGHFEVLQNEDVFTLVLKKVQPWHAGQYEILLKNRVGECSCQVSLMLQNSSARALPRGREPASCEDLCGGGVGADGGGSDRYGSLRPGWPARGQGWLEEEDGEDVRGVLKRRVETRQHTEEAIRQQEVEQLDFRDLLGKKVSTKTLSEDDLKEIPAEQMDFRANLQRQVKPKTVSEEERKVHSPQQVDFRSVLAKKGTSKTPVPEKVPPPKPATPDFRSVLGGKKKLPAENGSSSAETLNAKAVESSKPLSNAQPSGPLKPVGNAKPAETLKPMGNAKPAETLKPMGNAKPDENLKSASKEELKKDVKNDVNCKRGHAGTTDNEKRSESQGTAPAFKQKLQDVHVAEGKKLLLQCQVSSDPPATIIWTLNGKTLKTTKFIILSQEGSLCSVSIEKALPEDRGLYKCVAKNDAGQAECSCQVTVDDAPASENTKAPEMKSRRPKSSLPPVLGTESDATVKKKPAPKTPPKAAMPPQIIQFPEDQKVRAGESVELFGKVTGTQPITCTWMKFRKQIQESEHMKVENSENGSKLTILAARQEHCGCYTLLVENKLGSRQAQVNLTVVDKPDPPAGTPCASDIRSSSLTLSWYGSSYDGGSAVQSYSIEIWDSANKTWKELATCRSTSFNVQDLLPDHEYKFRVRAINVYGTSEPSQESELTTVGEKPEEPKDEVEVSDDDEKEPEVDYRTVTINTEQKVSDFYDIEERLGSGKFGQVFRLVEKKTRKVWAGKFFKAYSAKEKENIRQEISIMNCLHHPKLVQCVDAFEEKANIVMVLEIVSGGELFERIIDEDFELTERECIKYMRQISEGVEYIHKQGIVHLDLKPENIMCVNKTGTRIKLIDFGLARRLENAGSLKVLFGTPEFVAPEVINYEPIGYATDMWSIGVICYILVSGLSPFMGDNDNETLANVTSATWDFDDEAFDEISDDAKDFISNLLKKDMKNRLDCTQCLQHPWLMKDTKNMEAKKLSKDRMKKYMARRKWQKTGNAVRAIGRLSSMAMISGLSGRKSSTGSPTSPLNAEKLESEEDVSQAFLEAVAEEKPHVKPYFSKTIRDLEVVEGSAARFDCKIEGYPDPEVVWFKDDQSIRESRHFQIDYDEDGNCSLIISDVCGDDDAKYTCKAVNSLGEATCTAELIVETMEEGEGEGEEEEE
CSNK1G2 (human), sequence (P78368 whole entry, looked up): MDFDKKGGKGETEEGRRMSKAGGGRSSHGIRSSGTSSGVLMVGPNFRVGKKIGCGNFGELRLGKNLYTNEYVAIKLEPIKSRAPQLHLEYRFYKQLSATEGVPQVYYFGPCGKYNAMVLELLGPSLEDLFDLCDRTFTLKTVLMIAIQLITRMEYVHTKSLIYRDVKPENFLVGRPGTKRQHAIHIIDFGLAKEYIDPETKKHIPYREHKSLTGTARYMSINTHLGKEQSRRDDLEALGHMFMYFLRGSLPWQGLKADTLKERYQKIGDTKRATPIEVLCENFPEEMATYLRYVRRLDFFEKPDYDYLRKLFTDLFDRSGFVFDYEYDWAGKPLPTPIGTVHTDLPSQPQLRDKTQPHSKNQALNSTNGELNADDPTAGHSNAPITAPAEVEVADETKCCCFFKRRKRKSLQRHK

In the case of `CN(C)C/C=C/C(=O)Nc1cccc(C(=O)Nc2ccc(Nc3nccc(-c4c(-c5ccccc5)nn5ccccc45)n3)cc2)c1`, the IC50 is 161 nM on CSNK1G2 (human); 56.1 nM against DDR1 (human); 1030 nM at PDGFRB (human); 82.9 nM at CSNK1E (human); 42 nM at RIPK2 (human); 138 nM at EPHB2 (human). Besides, the IC50 at MAPK10 (human) turned out to be 8.4 nM; at MAP3K9 (human), 45 nM; at EPHB4 (human) it was 121 nM; at MAPK9 (human), 23 nM; on ERBB4 (human) it was 28.9 nM; at MAP3K7 (human), 351 nM. For the same compound, the IC50 at FLT1 (human) is 18 nM; at MAPK8 (human) it was 39 nM; at GSK3B (human), 32 nM. Further, the kinase still bound, per cent of control in [1] (compound 1.0 µM) stood at 4%; at PRKCD (human) (compound 1.0 µM), 100%; on GRK7 (human) (compound 1.0 µM), 86%; on STK4 (human) (compound 1.0 µM), 4.2%; on ROCK2 (human) (compound 1.0 µM), 75%; at MYLK (human) (compound 1.0 µM), 77%.
In the case of `Cc1ccc(NC(=O)c2ccc(NC(=O)/C=C/CN(C)C)cc2)cc1Nc1nccc(-c2cccnc2)n1`, the kinase still bound, per cent of control amounted to 92% in [1] (compound 10.0 µM); 96% on PRKCD (human) (compound 10.0 µM); 82% on GRK7 (human) (compound 10.0 µM); 100% at STK4 (human) (compound 10.0 µM); 61% at ROCK2 (human) (compound 10.0 µM); 73% on MYLK (human) (compound 10.0 µM).
For `Cc1cc(NC(=O)c2cccc(NC(=O)/C=C/CN(C)C)c2)ccc1Nc1nccc(-c2cccnc2)n1`, the IC50 against PRKX (human) is 7500 nM; at HIPK4 (human) it was 8970 nM; against CSF1R (human) it was 287 nM; against PDGFRB (human) it was greater than 10000 nM; on MKNK2 (human), 238 nM; at MAP3K7 (human) it was 7720 nM. Also, the concentration for half-maximal inhibition (IC50) on YES1 (human) was found to be 1280 nM. For the same compound, the kinase still bound, per cent of control in assay [1] (compound 1.0 µM) turned out to be 93%; at PRKCD (human) (compound 1.0 µM) it was 100%; on GRK7 (human) (compound 1.0 µM), 72%; on STK4 (human) (compound 1.0 µM), 100%; at ROCK2 (human) (compound 1.0 µM) it was 49%; at MYLK (human) (compound 1.0 µM) it was 93%.
As to `CN(C)C/C=C/C(=O)Nc1cccc(C(=O)Nc2ccc(Nc3nccc(/C(C#N)=C4\Nc5ccccc5S4)n3)cc2)c1`, the half-inhibitory concentration (IC50) on AKT3 (human) was greater than 370 nM; on AKT1 (human) it was greater than 370 nM; against SLK (human) it was 884 nM; at CaMK1 (human), 900 nM; on MAPK10 (human), 354 nM; on MAP3K9 (human), 104 nM. The IC50 in [2] is 970 nM; at MAPK9 (human) it was 490 nM; at MAP3K7 (human) it was 866 nM; on FLT1 (human) it was 134 nM; on MAPK8 (human) it was 327 nM; on GSK3B (human), 84 nM. Moreover, the kinase still bound, per cent of control amounted to 51% in assay [1] (compound 1.0 µM); 47% at PRKCD (human) (compound 1.0 µM); 81% at GRK7 (human) (compound 1.0 µM); 100% on STK4 (human) (compound 1.0 µM); 100% at ROCK2 (human) (compound 1.0 µM); 100% at MYLK (human) (compound 1.0 µM).
With `CN(C)C/C=C/C(=O)Nc1cccc(C(=O)Nc2ccc(Nc3nccc(-c4cccnc4)n3)cc2)c1`, the half-inhibitory concentration (IC50) on HIPK1 (human) [3] was 5010 nM; against IRAK1 (human) [4], 14.1 nM; at RIPK2 (human), 729 nM; at MAPK15 (human) it was 183 nM; at GCK (human), 20500 nM; on HIPK1 (human) [5] it was 7610 nM. Also, the IC50 stood at 175 nM at IRAK1 (human) [6]; 833 nM on MAP3K7 (human); 144 nM at NUAK1 (human); 506 nM at CSNK2A1 (human); 2510 nM on JAK2 JH1 JH2 (human); 41 nM at MAPK8 (human). Moreover, the half-maximal inhibitory concentration (IC50) is 299 nM at CLK2 (human) and 933 nM at GSK3B (human). In addition, the kinase still bound, per cent of control is 18% in assay [1] (compound 1.0 µM); 76% on PRKCD (human) (compound 1.0 µM); 86% on GRK7 (human) (compound 1.0 µM); 45% on STK4 (human) (compound 1.0 µM); 16% on ROCK2 (human) (compound 1.0 µM); 100% at MYLK (human) (compound 1.0 µM).
